Test results as given in the supplement of paper PMC4977894.
Structures can show the parent of a compound that is named as a salt. ± gives the standard deviation of the averaged measurements.

How the values were obtained:
[1] = system: Homo sapiens (human subject panel, olfactory perception); assay: perceived odor familiarity rating (rating 0-100); higher = more familiar
Summary of the method: (§1)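 For each molecule, 1 mL diluted in paraffin oil was sniffed at high and low concentrations by 55 healthy human subjects aged 18–50, with the six lowest performers excluded. Presentation order was randomized over ten visits of 100 stimuli. Subjects who reported smelling a stimulus moved a computerized slider from its starting position of 50, and positions were converted to a 0–100 scale. The familiarity, intensity and pleasantness ratings are averaged across subjects.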

[2] = system: Homo sapiens (human subject panel, olfactory perception); assay: perceived odor pleasantness rating (rating 0-100); higher = more pleasant
Summary of the method: as §1

[3] = system: Homo sapiens (human subject panel, olfactory perception); assay: perceived odor intensity rating (rating 0-100); higher = stronger perceived smell
Summary of the method: as §1

[4] = odor dilution in paraffin oil: 1/10
[5] = odor dilution in paraffin oil: 1/1,000
[6] = odor dilution in paraffin oil: 1/100,000
[7] = odor dilution in paraffin oil: 1/10,000,000

| SMILES | perceived odor familiarity rating [1, 4] | perceived odor familiarity rating [1, 5] | perceived odor pleasantness rating [2, 4] | perceived odor pleasantness rating [2, 5] | perceived odor intensity rating [3, 4] | perceived odor intensity rating [3, 5] | perceived odor familiarity rating [1, 6] | perceived odor pleasantness rating [2, 6] | perceived odor intensity rating [3, 6] | perceived odor familiarity rating [1, 7] | perceived odor pleasantness rating [2, 7] | perceived odor intensity rating [3, 7] |
| --- | --- | --- | --- | --- | --- | --- | --- | --- | --- | --- | --- | --- |
| CC1CCC(=O)C1=O (stereo not given) [Methylcyclopentenolone] | 63 ± 33 | 52.5 ± 34 | 35.8 ± 32 | 44.6 ± 30 | 84.7 ± 18 | 72 ± 26 |  |  |  |  |  |  |
| CCCCCCCC(=O)OCCCCC [N-Amyl octanoate] |  | 42.3 ± 27 |  | 48.4 ± 23 |  | 37.1 ± 26 | 25.1 ± 28 | 58.8 ± 24 | 19.5 ± 28 |  |  |  |
| CC(C)=CCC/C(C)=C\CO [Nerol] |  | 60.3 ± 30 |  | 61.4 ± 24 |  | 71.1 ± 22 | 39.8 ± 33 | 48.8 ± 28 | 24.3 ± 27 |  |  |  |
| COc1ccc2ccccc2c1 [Nerolin Yara Yara] | 59.7 ± 28 | 58 ± 26 | 54.3 ± 29 | 61.6 ± 26 | 82.7 ± 15 | 71.5 ± 22 |  |  |  |  |  |  |
| CC(=O)OC/C=C(/C)CCC=C(C)C [Neryl acetate] | 49.1 ± 28 | 35.6 ± 28 | 49.9 ± 26 | 43 ± 18 | 67.2 ± 26 | 14.7 ± 20 |  |  |  |  |  |  |
| CCCCCCCCCOC(C)=O [Nonyl acetate] | 46.8 ± 29 | 39 ± 30 | 34.1 ± 27 | 39.9 ± 19 | 77.8 ± 18 | 37.1 ± 28 |  |  |  |  |  |  |
| CC(=O)OCCC1=CCC2CC1C2(C)C (stereo not given) [Nopol acetate] |  | 54.9 ± 30 |  | 70.6 ± 21 |  | 53.6 ± 29 | 52.7 ± 31 | 66.6 ± 25 | 40.7 ± 28 |  |  |  |
| CCCCCCCC [Octane] | 46.3 ± 29 | 27.3 ± 26 | 53.2 ± 25 | 44.1 ± 25 | 59.6 ± 31 | 13.9 ± 20 |  |  |  |  |  |  |
| CCCCCCCC(=O)O [Octanoic acid] |  | 52.1 ± 33 |  | 26.6 ± 19 |  | 68.6 ± 26 | 45.3 ± 32 | 35.2 ± 20 | 49.5 ± 33 |  |  |  |
| CCCCCCCCOC(=O)C(C)C [Octyl isobutyrate] |  | 38.9 ± 27 |  | 55.8 ± 21 |  | 29.9 ± 26 | 36 ± 31 | 53.4 ± 20 | 17.7 ± 20 |  |  |  |
| CCCCCCCCOC(=O)CC(C)C [Octyl isovalerate] |  | 35.1 ± 30 |  | 39.4 ± 22 |  | 28.9 ± 33 | 38.3 ± 33 | 54.1 ± 21 | 23.4 ± 28 |  |  |  |
| O=C1CCCCCCCCCCCCCCO1 [Omega-Pentadecalactone] | 58.9 ± 28 | 32 ± 24 | 73.5 ± 19 | 54.1 ± 23 | 57 ± 27 | 23 ± 29 |  |  |  |  |  |  |
| O=C(OCCc1ccccc1)c1ccco1 [Phenethyl 2-furoate] |  | 52.4 ± 37 |  | 58.7 ± 25 |  | 44.8 ± 31 | 40.5 ± 34 | 50.6 ± 24 | 24.1 ± 30 |  |  |  |
| CC(=O)OCCc1ccccc1 [Phenethyl acetate] |  | 59.1 ± 32 |  | 54.9 ± 28 |  | 62.1 ± 28 | 52.2 ± 34 | 56.9 ± 24 | 38.2 ± 32 |  |  |  |
| Nc1ccccc1C(=O)OCCc1ccccc1 [Phenethyl anthranilate] | 50.1 ± 32 | 27.7 ± 23 | 56.9 ± 24 | 48.2 ± 19 | 39.9 ± 32 | 15.1 ± 20 |  |  |  |  |  |  |
| O=C(OCCc1ccccc1)c1ccccc1 [Phenethyl benzoate] | 47.1 ± 31 | 24.1 ± 21 | 53.6 ± 24 | 49.4 ± 17 | 38 ± 27 | 19.6 ± 22 |  |  |  |  |  |  |
| O=C(Cc1ccccc1)OCCc1ccccc1 [Phenethyl phenylacetate] |  | 32.8 ± 26 |  | 53.4 ± 23 |  | 42.5 ± 33 | 31.6 ± 32 | 52.9 ± 23 | 17.2 ± 24 |  |  |  |
| CCC(=O)OCCc1ccccc1 [Phenethyl propionate] |  | 54.6 ± 32 |  | 54.6 ± 27 |  | 49.9 ± 34 | 51.1 ± 30 | 52.6 ± 25 | 26.4 ± 27 |  |  |  |

| SMILES | perceived odor familiarity rating [1, 4] | perceived odor familiarity rating [1, 5] | perceived odor pleasantness rating [2, 4] | perceived odor pleasantness rating [2, 5] | perceived odor intensity rating [3, 4] | perceived odor intensity rating [3, 5] | perceived odor familiarity rating [1, 6] | perceived odor pleasantness rating [2, 6] | perceived odor intensity rating [3, 6] | perceived odor familiarity rating [1, 7] | perceived odor pleasantness rating [2, 7] | perceived odor intensity rating [3, 7] |
| --- | --- | --- | --- | --- | --- | --- | --- | --- | --- | --- | --- | --- |
| O=C(OCCc1ccccc1)c1ccccc1O [Phenethyl salicylate] | 38.8 ± 29 | 33.8 ± 29 | 58.9 ± 22 | 49.2 ± 22 | 37.3 ± 31 | 17.8 ± 25 |  |  |  |  |  |  |
| NCCc1ccccc1 [Phenethylamine] |  | 46.8 ± 34 |  | 29.1 ± 28 |  | 62.9 ± 34 | 38.8 ± 26 | 48 ± 25 | 22.8 ± 26 |  |  |  |
| c1ccc(SSc2ccccc2)cc1 [Phenyl disulfide] |  | 47.2 ± 29 |  | 26.6 ± 23 |  | 61.2 ± 26 | 43.5 ± 29 | 28.3 ± 25 | 52.5 ± 30 |  |  |  |
| C/C(=C\CO)CCC[C@H](C)CCC[C@H](C)CCCC(C)C [Phytol] | 47.1 ± 32 | 25.4 ± 33 | 28.1 ± 21 | 44.2 ± 30 | 68.8 ± 26 | 19.8 ± 26 |  |  |  |  |  |  |
| C1CCNCC1 [Piperidine] |  | 53.6 ± 36 |  | 13.2 ± 18 |  | 76.5 ± 24 | 39.4 ± 29 | 48.2 ± 24 | 28.6 ± 31 |  |  |  |
| O=C(/C=C/C=C/c1ccc2c(c1)OCO2)N1CCCCC1 [Piperine] | 49.2 ± 31 | 20.9 ± 26 | 51.5 ± 26 | 44.9 ± 29 | 54.1 ± 29 | 19.4 ± 27 |  |  |  |  |  |  |
| CC(C)C(=O)OCc1ccc2c(c1)OCO2 [Piperonyl isobutyrate] |  | 38.4 ± 29 |  | 48.3 ± 25 |  | 29.4 ± 27 | 30.2 ± 25 | 43.1 ± 18 | 26.4 ± 30 |  |  |  |
| CCCOC(=O)CC [Propyl propionate] |  | 50.4 ± 32 |  | 44.4 ± 26 |  | 72.1 ± 21 | 33.7 ± 27 | 48.7 ± 25 | 22.9 ± 25 |  |  |  |
| CC(O)CO (stereo not given) [Propylene glycol] | 52.2 ± 30 | 33.7 ± 29 | 46.2 ± 25 | 42.5 ± 25 | 45.8 ± 34 | 10.5 ± 13 |  |  |  |  |  |  |
| SCCc1cnccn1 [Pyrazineethanethiol] |  |  |  |  |  |  | 37.2 ± 33 | 45.4 ± 26 | 33.8 ± 38 | 29.8 ± 25 | 49.2 ± 20 | 23.6 ± 22 |
| C1CCNC1 [Pyrrolidine] |  |  |  |  |  |  | 28.9 ± 29 | 40.7 ± 19 | 26.9 ± 26 | 37.2 ± 27 | 37.5 ± 22 | 26.6 ± 24 |
| CC(=O)C(=O)O [Pyruvic Acid] |  | 52.1 ± 29 |  | 39.1 ± 28 |  | 70.6 ± 23 | 44.5 ± 29 | 53.4 ± 24 | 37.7 ± 32 |  |  |  |
| c1ccc2ncccc2c1 [Quinoline] |  | 47.7 ± 34 |  | 22.4 ± 24 |  | 80.7 ± 18 | 41.4 ± 26 | 34.1 ± 24 | 56.4 ± 27 |  |  |  |
| O.O.O=P([O-])([O-])O.[Na+].[Na+] [Sodium phosphate dibasic] | 40.5 ± 32 | 31.5 ± 24 | 63.4 ± 26 | 46.2 ± 26 | 27.2 ± 27 | 24.1 ± 25 |  |  |  |  |  |  |
| O=C(O)CCC(=O)O [Succinic acid] | 35.5 ± 25 | 35.5 ± 32 | 34.6 ± 24 | 36.1 ± 21 | 46.2 ± 35 | 32.3 ± 27 |  |  |  |  |  |  |
| CC1=CCC(C(C)(C)OC=O)CC1 (stereo not given) [Terpinyl formate] |  | 45.6 ± 31 |  | 37.8 ± 26 |  | 42.2 ± 30 | 28.1 ± 26 | 46.9 ± 30 | 14.6 ± 20 |  |  |  |
| CC(=O)OCC1CCCO1 (stereo not given) [Tetrahydrofurfuryl acetate] |  | 42.4 ± 28 |  | 40.6 ± 26 |  | 55.6 ± 24 | 27.8 ± 24 | 49.1 ± 26 | 17 ± 24 |  |  |  |
